One may read the IC50 as the point on the concentration scale where inhibition reaches its midpoint.

Molecules are shown by their SMILES.

The source of these data is US20030225007A1, “Sulfonamide derivatives of 3-substituted imidazol[1,2-d]-1,2,4-thiadiazoles and 3-substituted-[1,2,4] thiadiazolo[4,5-a] benzimidazole as inhibitors of fibrin cross-linking and transglutaminases” (Apotex Inc., priority 2002, published 2003).

The target in assay [1] is T1, endogenous Factor XIII in plasma (Plasma FXIIIa) (Homo sapiens, UniProt P00488).
T1 construct: from tissue; host or cells: citrated plasma (desensitized by heating)
T1 sequence (P00488 39-732 limits assumed): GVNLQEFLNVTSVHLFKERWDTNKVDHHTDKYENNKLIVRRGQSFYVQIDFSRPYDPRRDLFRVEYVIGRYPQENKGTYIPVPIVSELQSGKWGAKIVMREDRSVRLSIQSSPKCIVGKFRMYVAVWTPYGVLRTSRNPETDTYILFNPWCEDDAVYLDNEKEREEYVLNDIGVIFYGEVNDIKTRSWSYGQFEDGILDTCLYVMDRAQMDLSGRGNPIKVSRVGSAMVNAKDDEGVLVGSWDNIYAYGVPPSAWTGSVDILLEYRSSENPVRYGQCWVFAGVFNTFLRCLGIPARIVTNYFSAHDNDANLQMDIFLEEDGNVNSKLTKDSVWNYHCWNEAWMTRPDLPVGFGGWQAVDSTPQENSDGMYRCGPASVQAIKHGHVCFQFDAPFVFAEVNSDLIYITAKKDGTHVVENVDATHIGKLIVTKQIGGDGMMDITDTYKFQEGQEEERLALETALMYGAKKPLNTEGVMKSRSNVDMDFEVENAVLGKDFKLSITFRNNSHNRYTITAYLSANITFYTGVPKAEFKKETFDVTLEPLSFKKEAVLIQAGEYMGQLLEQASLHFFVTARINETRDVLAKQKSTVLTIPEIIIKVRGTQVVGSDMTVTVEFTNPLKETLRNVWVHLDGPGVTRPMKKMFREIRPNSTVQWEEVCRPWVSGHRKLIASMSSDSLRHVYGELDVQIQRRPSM
As to the kind of experiment: Inactivation of endogenous Factor XIII in plasma. Type of assay: biochemical. Conditions: citrated plasma, thrombin-activated, 5 min at 37° C. The protocol: Citrated plasma (0.235 mL) was “desensitized” by heating with ethylene glycol monomethyl ether (0.235 mL, 20% solution in water) in a glass test tube at 56° C. for 4 min., as described by Lorand (Lorand, L.; Lockridge, O. M.; Campbell, L. K.; Myhrman, R.; Bruner-Lorand, J. Anal.Biochem. 1971, 44, 221-231). After cooling to 37° C., calcium chloride (20 μL, 0.4 M in 50 mM Tris-HCl pH 7.5) and inhibitor solution in 50% glycerol (59 μL) were added. Bovine thrombin (30 NIH units in 118 μL of 50 mM Tris-HCl pH 7.5 containing 20 mM CaCl2) was added and the mixture was incubated at 37° C. for 5 min.
An assay mixture composed of 0.1 M sodium borate, pH 9.0, 0.3% ethylene glycol monomethyl ether, 32 μM monodansylcadaverine, 10 mM CaCl2 and 0.08% dimethyl casein in a final volume of 1.263 mL was prepared in a spectrofluorometric cell and incubated at 37° C. for a few minutes. To assay the residual enzyme activity, 567 μL of the plasma solution was transferred to the assay mixture. The covalent incorporation of monodansylcadaverine into casein was monitored by an increase in fluorescence at λex=360 nm and λem=500 nm, as previously described (Curtis, C. G.; Lorand, L. Methods Enzymol. 1976, 45, 177-191). To determine uninhibited enzyme activity, inhibitor solution was replaced by 50% glycerol. IC50 values (inhibitor concentration resulting in 50% enzyme inactivation) were determined by plotting the percent of remaining enzyme activity against logarithm of inhibitor concentration.

The target in a further assay is T2, Guinea pig liver TGase (Cavia cutleri, UniProt P08587).
T2 construct: Guinea pig liver TGase; from tissue; host or cells: guinea pig liver
T2 sequence (P08587 2-690): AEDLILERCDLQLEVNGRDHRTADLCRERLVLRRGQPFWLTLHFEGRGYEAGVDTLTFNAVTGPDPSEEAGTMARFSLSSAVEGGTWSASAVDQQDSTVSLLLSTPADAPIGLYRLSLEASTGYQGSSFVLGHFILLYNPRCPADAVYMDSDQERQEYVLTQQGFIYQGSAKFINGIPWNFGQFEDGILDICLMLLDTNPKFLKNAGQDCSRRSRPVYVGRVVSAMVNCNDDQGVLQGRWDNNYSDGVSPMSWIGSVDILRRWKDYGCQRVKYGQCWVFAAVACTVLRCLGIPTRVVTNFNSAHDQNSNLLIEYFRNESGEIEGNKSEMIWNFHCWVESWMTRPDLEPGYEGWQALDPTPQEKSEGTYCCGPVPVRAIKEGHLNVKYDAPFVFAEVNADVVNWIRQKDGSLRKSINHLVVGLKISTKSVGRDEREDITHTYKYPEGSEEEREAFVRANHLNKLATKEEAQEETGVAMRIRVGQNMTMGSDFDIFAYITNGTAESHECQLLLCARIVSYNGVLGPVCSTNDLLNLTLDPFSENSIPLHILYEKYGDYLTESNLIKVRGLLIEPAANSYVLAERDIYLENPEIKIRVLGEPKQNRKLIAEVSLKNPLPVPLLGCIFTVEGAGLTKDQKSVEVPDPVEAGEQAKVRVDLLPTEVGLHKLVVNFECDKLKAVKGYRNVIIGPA
As to the kind of experiment: Enzyme selectivity: inactivation of tissue type transglutaminase. In kind it is biochemical. To be noted: TGAse IC50, Guinea pig liver TGase; 5-min incubation at 37° C. in the absence of substrate. The protocol:
Enzyme selectivity . Inactivation of tissue type transglutaminase: Inhibitor solution in DMSO (5 μL) was added to 250 mM Tris-Cl pH 7.5 containing 40 mM CaCl2 and 1 mM EDTA in a final volume of 42 μL. Guinea pig liver TGase (3 μL, 2.5 mg/mL in 5 mM Tris-HCl pH 7.5, 2 mM EDTA) was added and the mixture was incubated for 5 min. at 37° C.
An assay mixture composed of 50 mM Tris-Cl, pH 8.0, 10 mM CaCl2, 1 mM EDTA, 0.1% poly(ethylene glycol) (app. MW=1000) and 20 μM monodansylcadaverine was prepared in a spectrofluorimetric cell in a final volume of 2952 μL. Dimethylcasein (8 μL, 1% in 50 mM sodium phosphate pH 7.5) was added and the mixture was incubated at 37° C. for a few minutes. To assay the residual enzyme activity, 40 μL of the solution containing the enzyme and the inhibitor was transferred to the assay mixture. The covalent incorporation of monodansylcadaverine into casein was monitored by an increase in fluorescence at λexc=360 nm and λem=500 nm, as previously described ((Curtis, C. G.; Lorand, L. Methods Enzymol. 1976, 45, 177-191). To determine uninhibited enzyme activity, DMSO was used in place of inhibitor solution in the above assay. IC50 values were determined by plotting the percent of remaining enzyme activity against logarithm of inhibitor concentration. IC50 is defined here as inhibitor concentration resulting in 50% enzyme inactivation after 5-min incubation of the enzyme with the inhibitor in the absence of the substrate. Second order rate constants for inactivation were determined using method described by Kitz and Wilson (Kitz, R.; Wilson, I. J.Biol.Chem. 1962,237, 3245).

Regarding `O=S(=O)(NCCCCCCNc1nsc2nccn12)c1cccc2ccccc12` [1-naphthyl, N-[6-(imidazo[1,2-d][1,2,4]thiadiazol-3-ylamino)hexyl]naphthalene-1-sulfonamide], the IC50 was 8.4 µM in assay [1] and 23 µM at Guinea pig liver TGase. For `O=C(O)CN(CCCCCCNS(=O)(=O)c1ccccc1[N+](=O)[O-])c1nsc2nccn12` [H / CH2CO2H / 2-NO2-Ph, N-imidazo[1,2-d][1,2,4]thiadiazol-3-yl-N-(6-{[(2-nitrophenyl)sulfonyl]amino}hexyl)glycine], at Guinea pig liver TGase, the midpoint of inhibition, the IC50, lay at 17 µM. This counts as double-digit micromolar.

Turning to `O=S(=O)(NCCCCCCNc1nsc2nccn12)c1ccc(OC(F)(F)F)cc1` [4-OCF3-Ph, N-[6-(imidazo[1,2-d][1,2,4]thiadiazol-3-ylamino)hexyl]-4-trifluoromethoxybenzenesulfonamide], the IC50 (in assay [1]; on Guinea pig liver TGase) was 31 µM each time. `O=S(=O)(NCCCCCCNc1nsc2nccn12)c1ccc(F)cc1F` [2,4-diF-Ph, 2,4-difluoro-N-[6-(imidazo[1,2-d][1,2,4]thiadiazol-3-ylamino)hexyl]benzenesulfonamide]: the IC50 in assay [1] was found to be 6.1 µM; at Guinea pig liver TGase, 23 µM. Take `O=S(=O)(Cc1ccccc1)NCCCCCCNc1nsc2nccn12` [2 / CH2Ph, N-[6-(imidazo[1,2-d][1,2,4]thiadiazol-3-ylamino)hexyl]-1-phenylmethanesulfonamide]: the IC50 in assay [1] stood at 19 µM; on Guinea pig liver TGase it was 27 µM.
